“Also recorded” adds a separate entry of the source.
What was measured:
[1] = system: PSA; assay: PSA expression in LNCaP cells (Western and Northern blotting); type: cell-based, human; details: for PSA expression at mRNA and protein levels: 5 nM DHT, 10 μM VES, Western and Northern blotting; for PSA expression: Western blotting (FIG. 9)
Experimental: (§1) Cells without treatment were harvested on day 2 and used as a control. Western blotting was used to detect the expression of PSA protein. Actin served as an internal control. […] Cells were harvested on days 1, 2, and 3 for Northern blotting analysis. β-Actin served as an internal control. […] The transfections were performed at least three times and presented as an average±SD. […] LNCaP cells without any treatment harvested on the first day (day 0) is used as a control. Western blotting was applied to detect the expression of PSA protein level. […] Cells were harvested on day 1, 2, and 3 for Northern blotting analyses. (G). […] The transfections were performed three times and presented as an average: bar-denotes standard deviation.
Protein harvested from cells without treatment on the first day (day 0) was used as a control. Fifty micrograms of whole-cell lysate was subjected to Western blotting assay.
LNCaP cells were cultured in RPMI medium with 8% FBS, and treated with […] of the indicated reagent. Proteins harvested from cells without treatment on day 2 were used as a control. 60 micrograms of whole cell lysate was subjected to Western blotting assay.
(§2) Total protein lysate from LNCaP cells was prepared as previously described (Yeh, PNAS). After separation of 50 μg protein by SDS-PAGE gel, proteins were transferred by electrophoresis to Immobilon-P membrane (Millipore Corp., Bedford, Mass.) and incubated in PBS with 0.1% Tween-20 and 10% FCS for 2 h. Primary antibodies specific for human AR, PSA, and β-actin were diluted in PBS with 0.1% Tween-20 (PBST) as described in manual and incubated at room temperature for 2 h. Membranes were washed in PBST (three times, 10 min each time) and incubated with AP-conjugated secondary antibody which was diluted as described in manual in PBST and incubated for 2 h in room temperature, washed in PBST (three times, 10 min each time). The proteins were detected by AP western blotting reagents.
Cells were harvest after 1, 2, and 3 days treatment. Total RNA was extracted using Trizol, according to manufacturer's directions (GIBCO). Total RNA (20 μg) was electrophoresed though formaldehyde-agarose gels and transferred to Hybond-N+ membrane (Amersham Pharmacia Biotech) according the company's protocol (17).
For Northern blots, the fragments of the human PSA, AR, and β-actin cDNA were labeled with [^32P]-dCTP using the random primed DNA labeling kit from Amersham Pharmacia Biotech. Membranes were prehybridized, hybridized, and washed using Rapid-hyb system from Amersham Pharmacia Biotech, according to the manufacturer's user manual. The mRNA was detected using phosphorimager screen system (Molecular Dynamics).

[2] = system: PSA6.0-Luc; assay: PSA promoter luciferase reporter (PSA6.0-Luc) in LNCaP cells; type: cell-based, human; details: 5 nM DHT, 10 μM VES or Suc
Experimental: as §1

[3] = system: LNCaP cells; assay: MTT assay / cell counting, LNCaP cell growth; type: cell-based, human; details: for DHT-mediated LNCaP cell growth: 8% CS-FBS with 5 nM DHT
Experimental: Cells were harvested at the time indicated. […] Cells were harvested at the time indicated. […] Cell growth was determined by the MTT assay. The control group was cultured in 0.1% (vol/vol) ethanol and was set at 100%.
All the cell growth was determined by cell counting and MTT assay. Control group contained 0.1% (v/v) ethanol and was set at 100%.
LNCaP cells were cultured in RPMI medium with 8% FBS, and treated with 10^−5M of the indicated reagent Cells were harvested at the time indicated in the figure. All the cell growth was determined by cell counting and MTT assay. Control group contained 0.1% (v/v) ethanol and was set at 100%.
The human prostate cancer cell line LNCaP was obtained from the American Type Culture collection (Rockville, Md.). Fibroblast cell was primarily cultured from normal prostate tissue. LNCaP cells were propagated in 12-well, 60 mm or 100 mm culture dishes at the desired density in RPMI 1640 medium (Gibco, Rockville, Md.) supplemented with 8% fetal bovine serum (FBS) (Gibco, Rockville, Md.) at 37° C. and 5% CO2 until reaching 60%-80% confluence or were grown in phenol red-free RPMI medium 1640 with 8% fetal bovine serum (FBS). The fibroblast cells were maintained in DMEM (Gibco, Rockville, Md.) with 10% FBS. […] During the treatment, the medium was changed every 4 days and fresh compounds were added every 2 days.
The MTT assay is a quantitative colorimetric assay for mammalian cell survival and proliferation (13, 16). The 5×10^4 LNCaP cells were seeded in 12-well plates. After 36-48 h, the medium was changed to phenol red free RPMI1640 with 8 % FBS or CS-FBS for another 2, 4, and 6 days, with different compound treatment with or without ligand. At the end of each time period treatment, 200 μl of MTT (5 mg/ml; Sigma) was added into the each well with 1 ml of medium for 3 h at 37° C. After incubation, 2 ml of 0.04 M HCl in isopropyl alcohol was added into each well. After 30-min shaking at room temperature and several pippettings, the absorbency was read at a test wavelength of 595 nm. The 2×10^5 fibroblast cells were seeded in each well of 6-well dishes. […] For cell counting, cells were trypsinized, neutralized by medium, and counted on hemocytometers. Fibroblast cells were seeded at 2×10^5 per well in 6-well plates, and cell growth assays were conducted by using the same MTT assay used for LNCaP cells.

[4] = system: AR; assay: In vivo AR radioligand competition binding assay in LNCaP cells; set-up: species or system human
Experimental: [^3H]R1881-binding without competition was set at 100%. […] (B) AR N-C dimerization.
LNCaP cells were plated into 60-mm dishes and grown to 60% confluence. […] After 1-h incubation, cells were harvested by lysis buffer (PBS with 1% Triton X-100). Equal protein amounts of cell extract were subjected to binding assays, which were terminated by adding hydroxylapatite. Each sample was filtered by using a sampling manifold (Millipore) and unbound ligand was removed by washing. Filter papers that contained bound ligand were transferred to counting vials containing 5 ml of liquid scintillation fluid and counted with a multipurpose scintillation counter (Beckman).

[5] = system: AR; assay: AR expression in LNCaP cells (Western and Northern blotting); type: cell-based, human; details: for AR expression at the protein level: Western blotting, Suc or SM, 10 nM Vit D; for AR expression: Western blotting (FIG. 9)
Experimental: Cells were harvested at different time points. Twenty-five micrograms of RNA and 50 μg of protein collected from the same culture dish were applied for Northern blotting and Western blotting assays, respectively (45). The amount of actin is shown as a control. […] LNCaP cells without treatment were harvested on day 2 and used as a control. Whole-cell lysates were subjected to Western blotting assay using primary antibodies for AR, VDR, PPAR, or RXR. […] Protein harvested from cells without treatment on the first day (day 0) was used as a control. Fifty micrograms of whole-cell lysate was subjected to Western blotting assay. […] LNCaP cells were cultured in RPMI medium with 8% FBS, and treated with […] of the indicated reagent. Proteins harvested from cells without treatment on day 2 were used as a control. 60 micrograms of whole cell lysate was subjected to Western blotting assay. Total protein lysate from LNCaP cells was prepared as previously described (Yeh, PNAS). […] Membranes were washed in PBST (three times, 10 min each time) and incubated with AP-conjugated secondary antibody which was diluted as described in manual in PBST and incubated for 2 h in room temperature, washed in PBST (three times, 10 min each time). The proteins were detected by AP western blotting reagents. […] Cells were harvest after 1, 2, and 3 days treatment. Total RNA was extracted using Trizol, according to manufacturer's directions (GIBCO). Total RNA (20 μg) was electrophoresed though formaldehyde-agarose gels and transferred to Hybond-N+ membrane (Amersham Pharmacia Biotech) according the company's protocol (17). For Northern blots, the fragments of the human PSA, AR, and β-actin cDNA were labeled with [^32P]-dCTP using the random primed DNA labeling kit from Amersham Pharmacia Biotech. Membranes were prehybridized, hybridized, and washed using Rapid-hyb system from Amersham Pharmacia Biotech, according to the manufacturer's user manual. The mRNA was detected using phosphorimager screen system (Molecular Dynamics).

[6] = system: RXRα; assay: RXR expression in LNCaP cells (Western blotting); type: cell-based, human; details: 10 μM VES
Experimental: (§3) Cells were harvested at different time points. Twenty-five micrograms of RNA and 50 μg of protein collected from the same culture dish were applied for Northern blotting and Western blotting assays, respectively (45). The amount of actin is shown as a control. […] LNCaP cells without treatment were harvested on day 2 and used as a control. Whole-cell lysates were subjected to Western blotting assay using primary antibodies for AR, VDR, PPAR, or RXR.
as §2

[7] = system: primary cultured fibroblasts from normal prostate tissue; assay: MTT assay, primary cultured prostate fibroblast growth; type: cell-based; details: 10 μM VES, 10% FBS DMEM
[8] = system: LNCaP cells; assay: MTT assay / cell counting, LNCaP cell growth; type: cell-based, human; details: 10 μM VES, 4 days, phase-contrast
[9] = system: AR; assay: AR translocation / immunostaining; type: cell-based
Excerpt: Whether VES could influence translocation of AR was examined.

[10] = system: SP1; assay: GAL4-SP1 transactivation (pG5-Luc) in COS-1 cells; type: cell-based; details: 10 μM VES
[11] = system: PPARα; assay: PPAR expression in LNCaP cells (Western blotting); type: cell-based, human
Experimental: as §3, §2

[12] = target: human TAP (hTAP) (Homo sapiens, UniProt O76054); details: recombinant hTAP; read-out: Kd of binding to recombinant hTAP; cited from earlier work
Chain of human TAP (hTAP) (O76054 whole entry): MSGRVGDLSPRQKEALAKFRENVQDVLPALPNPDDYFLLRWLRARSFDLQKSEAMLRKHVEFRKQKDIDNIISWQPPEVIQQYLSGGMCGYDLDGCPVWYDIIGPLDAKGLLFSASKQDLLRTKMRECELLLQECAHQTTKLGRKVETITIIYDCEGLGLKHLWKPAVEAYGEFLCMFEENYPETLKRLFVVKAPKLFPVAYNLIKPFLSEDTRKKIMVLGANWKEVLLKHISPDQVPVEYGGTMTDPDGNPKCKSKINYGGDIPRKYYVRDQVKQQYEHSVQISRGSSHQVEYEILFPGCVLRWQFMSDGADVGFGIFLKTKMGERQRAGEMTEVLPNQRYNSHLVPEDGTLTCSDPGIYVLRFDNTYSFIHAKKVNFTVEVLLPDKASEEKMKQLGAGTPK

[13] = 8% FBS without DHT, HF 5 μM, VES 10 μM, MTT
[14] = RPMI 8% FBS, 10^−5M reagent, cell counting and MTT (FIGS. 8 and 10)

C[C@]12CCC(=O)C[C@@H]1CC[C@@H]1[C@@H]2CC[C@]2(C)[C@@H](O)CC[C@@H]12 [DHT, 5-dihydrotestosterone]
PSA expression at mRNA and protein levels ([1]; LNCaP): induced
DHT induced PSA6.0-Luc activity [2]: induced
LNCaP cell growth ([3]; 8% CS-FBS, DHT 5 nM, MTT): can stimulate

CC(C)(O)C(=O)Nc1ccc([N+](=O)[O-])c(C(F)(F)F)c1 [HF, hydroxyflutamide]
DHT-mediated LNCaP cell growth ([3]; HF 5 μM, VES 10 μM, MTT): fails to repress
LNCaP cell growth [3, 13]: induces LNCaP cell growth at day 2, with the induction gradually diminishing after day 4

C[C@]1(O)CC[C@H]2[C@@H]3CCC4=CC(=O)CCC4=C3C=C[C@@]21C [R1881, reference compound]
specific binding of [3H]R1881 competed ([4]; 2.5 nM [3H]R1881, 100-fold excess unlabeled R1881 (250 nM)): 95%

C[Se]CC[C@H](N)C(=O)O [SM, selenomethionine]
PSA expression (protein) ([1]; LNCaP, 8% FBS, 10 μM SM, Western blot): no effect
AR expression at the protein level ([5]; 10 μM VES): no effect
LNCaP cell growth ([3]; 10 μM SM, after 4 days treatment): growth inhibition

O=C(O)CCC(=O)O [Suc, succinic acid]
AR expression at the protein level ([5]; 10 μM VES): not
DHT induced PSA6.0-Luc activity [2]: not

CC(=O)Oc1c(C)c(C)c2c(c1C)CCC(C)(CCC[C@H](C)CCC[C@H](C)CCCC(C)C)O2 (stereo partly drawn) [VEA, α-Vit E acetate]
PSA expression ([1]; LNCaP, 8% FBS): do not efficiently inhibit
AR expression ([5]; 8% FBS): do not efficiently inhibit

Cc1c(C)c2c(c(C)c1OC(=O)CCC(=O)O)CCC(C)(CCCC(C)CCCC(C)CCCC(C)C)O2 (stereo not drawn) [VES, RRR-α-tocopheryl succinate]
intracellular and secreted levels of PSA ([1]; LNCaP cells in normal serum or androgen-stimulated conditions): decreases
PSA expression ([1]; LNCaP, 8% FBS): most effective isoform
PSA expression at mRNA and protein levels ([1]; LNCaP): effectively repressed
RXRα expression [6]: little effect
AR mRNA and protein expression ([5]; 8% FBS, 10 μM VES, Northern and Western blotting): inhibits
AR expression ([5]; 8% FBS): most effective isoform
AR expression at the protein level ([5]; 10 μM VES): could suppress
prostate fibroblast cell growth [7]: only a marginal inhibitory effect and not
DHT induced PSA6.0-Luc activity [2]: repressed
morphologic change of LNCaP cells [8]: most of the cells dying
AR distribution between cytosol and nucleus [9]: little influence
total AR-staining intensity [9]: reduced
GAL4-SP1 transcription activity [10]: did not significantly inhibit
PPARr expression ([11]; 10 uM VES): little effect
PPARα expression ([11]; 10 μM VES): little effect
influence on AR ligand binding ([4]; 10 μM VES pretreatment 24 h, 2.5 nM [3H]R1881): little influence
DHT-mediated LNCaP cell growth ([3]; HF 5 μM, VES 10 μM, MTT): effectively represses
LNCaP cell growth [3, 13]: inhibits; also recorded: differentially inhibit
LNCaP cell growth [3, 14]: can inhibit; also recorded: most effective compound; also recorded: most effective isoform

C=C1/C(=C\C=C2/CCC[C@]3(C)[C@@H]([C@H](C)CCCC(C)(C)O)CC[C@@H]23)C[C@@H](O)C[C@@H]1O [Vit D, 1α, 25-dihydroxyvitamin D3]
AR expression at the protein level ([5]; 10 μM VES): not
LNCaP cell growth [3, 14]: can inhibit

Cc1c(C)c2c(c(C)c1O)CCC(C)(CCCC(C)CCCC(C)CCCC(C)C)O2 (centres unmarked) [vitamin E]
Kd [12]: 460 nM

Cc1c(C)c2c(c(C)c1O)CC[C@@](C)(CCC[C@H](C)CCC[C@H](C)CCCC(C)C)O2 [α-Vit E, alpha—tocopherol]
PSA expression ([1]; LNCaP, 8% FBS): can also inhibit
AR expression ([5]; 8% FBS): can also inhibit
LNCaP cell growth [3, 14]: can inhibit

Cc1c(O)cc2c(c1C)O[C@](C)(CCC[C@H](C)CCC[C@H](C)CCCC(C)C)CC2 [γ-Vit E, (+)-γ-tocopherol]
PSA expression ([1]; LNCaP, 8% FBS): do not efficiently inhibit
AR expression ([5]; 8% FBS): do not efficiently inhibit
LNCaP cell growth [3, 14]: can inhibit

From US20040248971A1, “Use of vitamin e succinate and antiandrogen combination” (priority 2001, published 2004)
